Assay results as given in ChEMBL document CHEMBL3045594, “Synthesis and evaluation of substituted 5-(3-chloro-2-oxo-4-phenylazetidin-1-ylamino)pyrimidine-2,4,6(1H,3H,5H)-triones against pentylenetetrazole-induced convulsant in mice” (Med Chem Res, 2012).

Columns and labels:
Mus musculus [1] = experiment: Anticonvulsant activity in Mus musculus (mouse) subcutaneous PTZ-induced seizure assessed as malondialdehyde level at 20 mg/kg, ip administered 30 min before PTZ challenge by TBARS assay; assay type: functional
Mus musculus [2] = experiment: Anticonvulsant activity in Mus musculus (mouse) subcutaneous PTZ-induced seizure assessed as carbonyl protein level at 40 mg/kg, ip administered 30 min before PTZ challenge; assay type: functional
Mus musculus [3] = experiment: Anticonvulsant activity in Mus musculus (mouse) subcutaneous PTZ-induced seizure assessed as reduced nitrite level per mg of protein at 40 mg/kg, ip administered 30 min before PTZ challenge by Griess reaction; assay type: functional
Mus musculus [4] = experiment: Anticonvulsant activity in Mus musculus (mouse) subcutaneous PTZ-induced seizure assessed as reduced glutathione level per mg of protein at 40 mg/kg, ip administered 30 min before PTZ challenge by Ellman method; assay type: functional
Mus musculus [5] = experiment: Anticonvulsant activity in Mus musculus (mouse) subcutaneous PTZ-induced seizure assessed as malondialdehyde level at 40 mg/kg, ip administered 30 min before PTZ challenge by TBARS assay; assay type: functional
Mus musculus [6] = experiment: Anticonvulsant activity in Mus musculus (mouse) assessed as protection against subcutaneous PTZ-induced seizure at 40 mg/kg, ip administered 30 min before PTZ challenge; assay type: functional
Mus musculus [7] = experiment: Anticonvulsant activity in Mus musculus (mouse) assessed as protection against subcutaneous PTZ-induced seizure at 20 mg/kg, ip administered 30 min before PTZ challenge; assay type: functional
[8] = Acute toxicity in Mus musculus (mouse) assessed as mortality at 1000 mg/kg, ip; assay type: organism-based; design: dose 1000 mg/kg, route intraperitoneal; conditions: in vivo, read-out: Activity
Mus musculus [9] = experiment: Acute toxicity in Mus musculus (mouse) assessed as behavioral changes at 1000 mg/kg, ip; assay type: organism-based; design: dose 1000 mg/kg, route intraperitoneal; conditions: in vivo
Mus musculus [10] = experiment: Acute toxicity in Mus musculus (mouse) at 100 to 200 mg/kg, ip; assay type: organism-based; design: dose 100-200 mg/kg, route intraperitoneal; conditions: in vivo
Mus musculus [11] = experiment: Anticonvulsant activity in Mus musculus (mouse) subcutaneous PTZ-induced seizure assessed as carbonyl protein level at 20 mg/kg, ip administered 30 min before PTZ challenge; assay type: functional
Mus musculus [12] = experiment: Anticonvulsant activity in Mus musculus (mouse) subcutaneous PTZ-induced seizure assessed as reduced nitrite level per mg of protein at 20 mg/kg, ip administered 30 min before PTZ challenge by Griess reaction; assay type: functional
Mus musculus [13] = experiment: Anticonvulsant activity in Mus musculus (mouse) subcutaneous PTZ-induced seizure assessed as reduced glutathione level per mg of protein at 20 mg/kg, ip administered 30 min before PTZ challenge by Ellman method; assay type: functional
Mus musculus [14] = experiment: Anticonvulsant activity in Mus musculus (mouse) subcutaneous PTZ-induced seizure assessed as carbonyl protein level at 80 mg/kg, ip administered 30 min before PTZ challenge; assay type: functional
Mus musculus [15] = experiment: Anticonvulsant activity in Mus musculus (mouse) subcutaneous PTZ-induced seizure assessed as reduced nitrite level per mg of protein at 80 mg/kg, ip administered 30 min before PTZ challenge by Griess reaction; assay type: functional
Mus musculus [16] = experiment: Anticonvulsant activity in Mus musculus (mouse) subcutaneous PTZ-induced seizure assessed as reduced glutathione level per mg of protein at 80 mg/kg, ip administered 30 min before PTZ challenge by Ellman method; assay type: functional
Mus musculus [17] = experiment: Anticonvulsant activity in Mus musculus (mouse) subcutaneous PTZ-induced seizure assessed as malondialdehyde level at 80 mg/kg, ip administered 30 min before PTZ challenge by TBARS assay; assay type: functional
Mus musculus [18] = experiment: Anticonvulsant activity in Mus musculus (mouse) assessed as protection against subcutaneous PTZ-induced seizure at 80 mg/kg, ip administered 30 min before PTZ challenge; assay type: functional

SMILES | Activity (Mus musculus [1]) [nmol/mg] | Activity (Mus musculus [2]) [nmol/mg] | Activity (Mus musculus [3]) [µmol] | Activity (Mus musculus [4]) [µmol] | Activity (Mus musculus [5]) [nmol/mg] | Activity (Mus musculus [6]) [%] | Activity (Mus musculus [7]) [%] | mortality [8] [%] | Activity (Mus musculus [9]) | Activity (Mus musculus [10]) | Activity (Mus musculus [11]) [nmol/mg] | Activity (Mus musculus [12]) [µmol] | Activity (Mus musculus [13]) [µmol] | Activity (Mus musculus [14]) [nmol/mg] | Activity (Mus musculus [15]) [µmol] | Activity (Mus musculus [16]) [µmol] | Activity (Mus musculus [17]) [nmol/mg] | Activity (Mus musculus [18]) [%]
COc1cc(C2C(Cl)C(=O)N2NC2C(=O)NC(=O)NC2=O)ccc1O (centres undefined) | 35.19 | 20.48 | 0.54 | 0.084 | 30.68 | 83 | 66 | 70 | Toxic | Non-toxic | 21.68 | 0.53 | 0.081 | – | – | – | – | –
COc1ccc(C2C(Cl)C(=O)N2NC2C(=O)NC(=O)NC2=O)cc1 (centres undefined) | 47.11 | 25.94 | 0.49 | 0.047 | 42.91 | 66 | 33 | 70 | Toxic | Non-toxic | 27.53 | 0.47 | 0.043 | – | – | – | – | –
O=C1NC(=O)C(NN2C(=O)C(Cl)C2c2ccccc2)C(=O)N1 (centres undefined) | 48.36 | 29.61 | 0.48 | 0.036 | 44.04 | 16 | 16 | 70 | Toxic | Non-toxic | 30.74 | 0.46 | 0.031 | – | – | – | – | –
CCCC(CCC)C(=O)[O-].[Na+] [VALPROATE SODIUM] | – | – | – | – | – | – | – | – | – | – | – | – | – | 19.06 | 0.54 | 0.089 | 28.13 | 100
